Laboratory results: patent publication US20130184302A1, “METHODS FOR TREATING IRRITABLE BOWEL SYNDROME (IBS) AND INFECTIONS” (priority 2011, published 2013)

What was measured:
[1] = tested on: patients with non-constipation IBS (non-C IBS); experiment: Adequate relief of IBS symptoms and IBS symptom of bloating (weekly SGA, daily measures), rifaximin 550 mg TID 14 days; type: in vivo, human
Description: A measure of efficacy was based on subjects' answers to the Weekly Subject Global Assessment (SGA) questions over the 4 week study duration in relation to their IBS symptoms. […] The SGA question was asked weekly as follows: “In the past 7 days, have you had adequate relief of your IBS symptom of bloating?” (Yes/No).
The primary efficacy endpoint of the study was the proportion of subjects who achieved adequate relief of IBS symptoms for at least 2 weeks during the first 4 weeks of the 10-week follow-up phase.
Two measures of efficacy were assessed.
Subjects were questioned on the relief of overall IBS symptoms and bloating. […] The analyses defined success as a “yes” response to questions regarding adequate relief.
All subpopulations in the study responded to therapy. Baseline severity was determined during screening for Abdominal Pain/Discomfort and Bloating, and the number, type (normal, hard, loose) and urgency of bowel movements. Duration of effect was assessed in a ten week follow-up period.

[2] = tested on: patients with non-constipation IBS (non-C IBS); experiment: Stool frequency, rifaximin 550 mg TID study; type: in vivo, human
[3] = Age Group: <65 (N = 281), 550 mg TID
[4] = Gender: Female (N = 226), 550 mg TID
[5] = Gender: Male (N = 85), 550 mg TID
[6] = IBS Subtype: Alternating-predominant, 550 mg TID
[7] = IBS Subtype: Diarrhoea-predominant, 550 mg TID
[8] = Population: ITT (N = 315), 550 mg TID
[9] = Population: PP (N = 311), 550 mg TID
[10] = Population: PP (N = 311), weekly SGA, 550 mg TID
[11] = Race: Non-White (N = 31), 550 mg TID
[12] = Race: White (N = 280), 550 mg TID
[13] = oral rifaximin 550 mg TID 14 days vs subjects not taking rifaximin
[14] = weekly SGA, at least 2 of Weeks 3 through 6, 550 mg TID (N = 315)
[15] = weekly SGA, 550 mg TID (N = 315)

CO[C@H]1/C=C/O[C@@]2(C)Oc3c(C)c(O)c4c(O)c(c5c(nc6cc(C)ccn65)c4c3C2=O)NC(=O)/C(C)=C\C=C\[C@H](C)[C@H](O)[C@@H](C)[C@@H](O)[C@@H](C)[C@H](OC(C)=O)[C@@H]1C [Rifaximin, (2S,16Z,18E,20S,21S,22R, 23R,24R,25S,26S,27S,28E)-5,6,21,23,25 Pentahydroxy-27-methoxy-2,4,11,16,20,22,24,26-octamethyl-2,7-(epoxypentadeca-(1,11,13)trienimino) benzofuro (4,5-e) pyrido(1,2,-a) benzimidazole-1,15(2H)-dione,25-acetate]
Adequate Relief of IBS symptom of Bloating: Failure [1, 3]: 171 (60.9%) | Adequate Relief of IBS symptom of Bloating: Success [1, 3]: 110 (39.1%) | Adequate Relief of IBS symptoms: Failure [1, 3]: 171 (60.9%) | Adequate Relief of IBS symptoms: Success [1, 3]: 110 (39.1%) | Adequate Relief of IBS symptom of Bloating: Failure ([1]; Age Group: > = 65, 550 mg TID): 16 (53.3%) | Adequate Relief of IBS symptom of Bloating: Success ([1]; Age Group: > = 65, 550 mg TID): 14 (46.7%) | Adequate Relief of IBS symptoms: Failure ([1]; Age Group: > = 65, 550 mg TID): 16 (53.3%) | Adequate Relief of IBS symptoms: Success ([1]; Age Group: > = 65, 550 mg TID): 14 (46.7%) | Adequate Relief of IBS symptom of Bloating: Failure [1, 4]: 128 (56.6%) | Adequate Relief of IBS symptom of Bloating: Success [1, 4]: 98 (43.4%) | Adequate Relief of IBS symptoms: Failure [1, 4]: 130 (57.5%) | Adequate Relief of IBS symptoms: Success [1, 4]: 96 (42.5%) | Adequate Relief of IBS symptom of Bloating: Failure [1, 5]: 59 (69.4%) | Adequate Relief of IBS symptom of Bloating: Success [1, 5]: 26 (30.6%) | Adequate Relief of IBS symptoms: Failure [1, 5]: 57 (67.1%) | Adequate Relief of IBS symptoms: Success [1, 5]: 28 (32.9%) | Adequate Relief of IBS symptom of Bloating: Failure [1, 6]: 19 (55.9%) | Adequate Relief of IBS symptom of Bloating: Success [1, 6]: 15 (44.1%) | Adequate Relief of IBS symptoms: Failure [1, 6]: 21 (61.8%) | Adequate Relief of IBS symptoms: Success [1, 6]: 13 (38.2%) | Adequate Relief of IBS symptom of Bloating: Failure [1, 7]: 168 (60.6%) | Adequate Relief of IBS symptom of Bloating: Success [1, 7]: 109 (39.4%) | Adequate Relief of IBS symptoms: Failure [1, 7]: 166 (59.9%) | Adequate Relief of IBS symptoms: Success [1, 7]: 111 (40.1%) | Adequate Relief of IBS symptom of Bloating Based on Daily Measures: Failure [1, 8]: 182 (57.8%) | Adequate Relief of IBS symptom of Bloating Based on Daily Measures: Success [1, 8]: 133 (42.2%) | Adequate Relief of IBS symptoms Based on Daily Measures: Failure [1, 8]: 200 (63.5%) | Adequate Relief of IBS symptoms Based on Daily Measures: Success [1, 8]: 115 (36.5%) | Adequate Relief of IBS symptom of Bloating Based on Daily Measures: Failure [1, 9]: 180 (57.9%) | Adequate Relief of IBS symptom of Bloating Based on Daily Measures: Success [1, 9]: 131 (42.1%) | Adequate Relief of IBS symptoms Based on Daily Measures: Failure [1, 9]: 196 (63.0%) | Adequate Relief of IBS symptoms Based on Daily Measures: Success [1, 9]: 115 (37.0%) | Adequate Relief of IBS symptom of Bloating: Failure [1, 10]: 187 (60.1%) | Adequate Relief of IBS symptom of Bloating: Success [1, 10]: 124 (39.9%) | Adequate Relief of IBS symptoms: Failure [1, 10]: 187 (60.1%) | Adequate Relief of IBS symptoms: Success [1, 10]: 124 (39.9%) | Adequate Relief of IBS symptom of Bloating: Failure [1, 11]: 17 (54.8%) | Adequate Relief of IBS symptom of Bloating: Success [1, 11]: 14 (45.2%) | Adequate Relief of IBS symptoms: Failure [1, 11]: 16 (51.6%) | Adequate Relief of IBS symptoms: Success [1, 11]: 15 (48.4%) | Adequate Relief of IBS symptom of Bloating: Failure [1, 12]: 170 (60.7%) | Adequate Relief of IBS symptom of Bloating: Success [1, 12]: 110 (39.3%) | Adequate Relief of IBS symptoms: Failure [1, 12]: 171 (61.1%) | Adequate Relief of IBS symptoms: Success [1, 12]: 109 (38.9%) | Answers to weekly SGA question on adequate relief of IBS symptom of bloating [1, 13]: responded “Yes” more often | Answers to weekly SGA question on adequate relief of IBS symptoms [1, 13]: responded “Yes” more often | Adequate Relief of IBS symptom of Bloating: Success [1, 14]: 125 (39.7%) | Adequate Relief of IBS symptoms: Success [1, 14]: 125 (39.7%) | Adequate Relief of IBS symptom of Bloating: Failure [1, 15]: 190 (60.3%) | Adequate Relief of IBS symptoms: Failure [1, 15]: 190 (60.3%) | % with decrease in SF (stool frequency) ([2]; Week 1): 14.4% | % with decrease in SF (stool frequency) ([2]; Week 2): 20.6% | % with decrease in SF (stool frequency) ([2]; Week 3): 22.2%
